Reference: ChEMBL document CHEMBL1201862, “PubChem BioAssay data set” (2004)
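These data come from cells grown in 96-well plates and exposed to compound for 48 hours at five concentrations. Abbreviation: GI50, concentration required for 50% inhibition of growth.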 The source made the active and inactive calls. Rule as the data show it: active = GI50 up to about 1.1 µM and inactive = higher.

Experiments:
Experiment in all cases: NCI anticancer screen, dose series, 48 h
CCRF-CEM = test system: CCRF-CEM
SNB-75 = test system: SNB-75
CAKI-1 = test system: CAKI-1
MCF7 = test system: MCF7
SF-539 = test system: SF-539
SK-MEL-2 = test system: SK-MEL-2
SK-OV-3 = test system: SK-OV-3
HT-29 = test system: HT-29
786-0 = test system: 786-0
MDA-N = test system: MDA-N
KM12 = test system: KM12
M14 = test system: M14
BT-549 = test system: BT-549
ACHN = test system: ACHN
OVCAR-3 = test system: OVCAR-3
MOLT-4 = test system: MOLT-4
NCI-H460 = test system: NCI-H460
NCI-H522 = test system: NCI-H522
SF-268 = test system: SF-268
COLO 205 = test system: COLO 205
TK-10 = test system: TK-10
K562 = test system: K562
UACC-257 = test system: UACC-257
EKVX = test system: EKVX
HL-60 = test system: HL-60
SF-295 = test system: SF-295
SW-620 = test system: SW-620
SK-MEL-5 = test system: SK-MEL-5
U-251 = test system: U-251
HOP-92 = test system: HOP-92
SNB-19 = test system: SNB-19
SR = test system: SR
HCC 2998 = test system: HCC 2998
MDA-MB-231 = test system: MDA-MB-231
NCI-H23 = test system: NCI-H23
MDA-MB-435 = test system: MDA-MB-435
DU-145 = test system: DU-145
T47D = test system: T47D
Hs-578T = test system: Hs-578T
UACC-62 = test system: UACC-62
HCT-116 = test system: HCT-116
RXF 393 = test system: RXF 393
OVCAR-5 = test system: OVCAR-5
OVCAR-8 = test system: OVCAR-8
OVCAR-4 = test system: OVCAR-4
LOX IMVI = test system: LOX IMVI
IGROV-1 = test system: IGROV-1
HOP-62 = test system: HOP-62
UO-31 = test system: UO-31
SK-MEL-28 = test system: SK-MEL-28
A498 = test system: A498
HCT-15 = test system: HCT-15
A549 = test system: A549
RPMI-8226 = test system: RPMI-8226
SN12C = test system: SN12C
NCI/ADR-RES = test system: NCI/ADR-RES
NCI-H226 = test system: NCI-H226
PC-3 = test system: PC-3
Malme-3M = test system: Malme-3M

COc1c2c(c(OC)c3c1c(=O)c1ccccc1n3C)OCO2
GI50 (CCRF-CEM): 4.35 µM (inactive) | GI50 (SNB-75): 6.68 µM (inactive) | GI50 (CAKI-1): 37.4 µM (inactive) | GI50 (MCF7): 4.2 µM (inactive) | GI50 (SF-539): 5.31 µM (inactive) | GI50 (SK-MEL-2): > 19.9 µM (inactive) | GI50 (SK-OV-3): 25.5 µM (inactive) | GI50 (HT-29): 17.5 µM (inactive) | GI50 (786-0): 29.2 µM (inactive) | GI50 (MDA-N): 2.08 µM (inactive) | GI50 (KM12): 3.25 µM (inactive) | GI50 (M14): 9.51 µM (inactive) | GI50 (BT-549): 15 µM (inactive) | GI50 (ACHN): 49.2 µM (inactive) | GI50 (OVCAR-3): 5.51 µM (inactive) | GI50 (MOLT-4): 7.85 µM (inactive) | GI50 (NCI-H460): 8.49 µM (inactive) | GI50 (NCI-H522): 2.23 µM (inactive) | GI50 (SF-268): 18.5 µM (inactive) | GI50 (COLO 205): 7.66 µM (inactive) | GI50 (TK-10): > 100 µM (inactive) | GI50 (K562): 0.703 µM (active) | GI50 (UACC-257): > 100 µM (inactive) | GI50 (EKVX): 35.4 µM (inactive) | GI50 (HL-60): 3.18 µM (inactive) | GI50 (SF-295): 14.1 µM (inactive) | GI50 (SW-620): 4.13 µM (inactive) | GI50 (SK-MEL-5): 3.14 µM (inactive) | GI50 (U-251): 19.1 µM (inactive) | GI50 (HOP-92): > 47.8 µM (inactive) | GI50 (SNB-19): 26.5 µM (inactive) | GI50 (SR): 3.69 µM (inactive) | GI50 (HCC 2998): 5.2 µM (inactive) | GI50 (MDA-MB-231): 19.3 µM (inactive) | GI50 (NCI-H23): 10.6 µM (inactive) | GI50 (MDA-MB-435): 2.28 µM (inactive) | GI50 (DU-145): 36.5 µM (inactive) | GI50 (T47D): 6.7 µM (inactive) | GI50 (Hs-578T): 4.79 µM (inactive) | GI50 (UACC-62): 9.06 µM (inactive) | GI50 (HCT-116): 6.15 µM (inactive) | GI50 (RXF 393): 6.07 µM (inactive) | GI50 (OVCAR-5): > 72.3 µM (inactive) | GI50 (OVCAR-8): 27.1 µM (inactive) | GI50 (OVCAR-4): 24.6 µM (inactive) | GI50 (LOX IMVI): 5.48 µM (inactive) | GI50 (IGROV-1): 7.87 µM (inactive) | GI50 (HOP-62): 25.2 µM (inactive) | GI50 (UO-31): 39.4 µM (inactive) | GI50 (SK-MEL-28): 30.5 µM (inactive) | GI50 (A498): 53.3 µM (inactive) | GI50 (HCT-15): 26.1 µM | GI50 (A549): 44.5 µM (inactive) | GI50 (RPMI-8226): 11.4 µM (inactive) | GI50 (SN12C): 33.5 µM (inactive) | GI50 (NCI/ADR-RES): 44.9 µM (inactive) | GI50 (NCI-H226): > 50.4 µM (inactive) | GI50 (PC-3): 19.7 µM (inactive)

c1ccc([C@@H]2N[C@@]3(CO[Si](c4ccccc4)(c4ccccc4)c4ccccc4)CC[C@H]4CN[C@@H]2[C@H]43)cc1
GI50 (CCRF-CEM): 16 µM (inactive) | GI50 (CAKI-1): 12.4 µM (inactive) | GI50 (MCF7): 2.99 µM (inactive) | GI50 (SF-539): 15.3 µM (inactive) | GI50 (SK-MEL-2): 17.9 µM (inactive) | GI50 (SK-OV-3): 16.2 µM (inactive) | GI50 (HT-29): 2.55 µM (inactive) | GI50 (786-0): 12.4 µM (inactive) | GI50 (MDA-N): 3.58 µM (inactive) | GI50 (KM12): 3.62 µM (inactive) | GI50 (M14): 5.65 µM (inactive) | GI50 (BT-549): 20.9 µM (inactive) | GI50 (ACHN): 13.7 µM (inactive) | GI50 (OVCAR-3): 13.8 µM (inactive) | GI50 (MOLT-4): 3.75 µM (inactive) | GI50 (NCI-H460): 10.4 µM (inactive) | GI50 (NCI-H522): 3.43 µM (inactive) | GI50 (SF-268): 4.63 µM (inactive) | GI50 (COLO 205): 1.68 µM (inactive) | GI50 (TK-10): 16.7 µM (inactive) | GI50 (K562): 3.33 µM (inactive) | GI50 (UACC-257): 14.3 µM (inactive) | GI50 (EKVX): 15.3 µM (inactive) | GI50 (HL-60): 4.36 µM (inactive) | GI50 (SF-295): 12.4 µM (inactive) | GI50 (SW-620): 3.25 µM (inactive) | GI50 (SK-MEL-5): 6.47 µM (inactive) | GI50 (U-251): 16.9 µM (inactive) | GI50 (HOP-92): 4.61 µM (inactive) | GI50 (SNB-19): 17.2 µM (inactive) | GI50 (SR): 3.15 µM (inactive) | GI50 (HCC 2998): 1.66 µM (inactive) | GI50 (MDA-MB-231): 11.8 µM (inactive) | GI50 (NCI-H23): 15.5 µM (inactive) | GI50 (MDA-MB-435): 8.51 µM (inactive) | GI50 (DU-145): 10.2 µM (inactive) | GI50 (T47D): 4.07 µM (inactive) | GI50 (Hs-578T): 13.8 µM (inactive) | GI50 (UACC-62): 14.3 µM (inactive) | GI50 (HCT-116): 3.23 µM (inactive) | GI50 (RXF 393): 4.3 µM (inactive) | GI50 (OVCAR-5): 16.1 µM (inactive) | GI50 (OVCAR-8): 13.1 µM (inactive) | GI50 (OVCAR-4): 13.6 µM (inactive) | GI50 (LOX IMVI): 10.4 µM (inactive) | GI50 (IGROV-1): 12.8 µM (inactive) | GI50 (HOP-62): 16.6 µM (inactive) | GI50 (Malme-3M): 0.0598 µM (active) | GI50 (UO-31): 10.8 µM (inactive) | GI50 (SK-MEL-28): 14.9 µM (inactive) | GI50 (A498): 15.3 µM (inactive) | GI50 (HCT-15): 3.17 µM | GI50 (A549): 12.3 µM (inactive) | GI50 (RPMI-8226): 2.76 µM (inactive) | GI50 (SN12C): 13.2 µM (inactive) | GI50 (NCI/ADR-RES): 15.4 µM (inactive) | GI50 (NCI-H226): 12.4 µM (inactive) | GI50 (PC-3): 9.06 µM (inactive)

O=c1c2cc(I)ccc2nc(SCc2nnco2)n1Cc1ccccc1
GI50 (CCRF-CEM): 10.8 µM (inactive) | GI50 (SNB-75): 56.5 µM (inactive) | GI50 (CAKI-1): > 100 µM (inactive) | GI50 (MCF7): 81.1 µM (inactive) | GI50 (SF-539): > 100 µM (inactive) | GI50 (SK-MEL-2): 81.8 µM (inactive) | GI50 (SK-OV-3): > 100 µM (inactive) | GI50 (HT-29): 60.5 µM (inactive) | GI50 (786-0): 35.7 µM (inactive) | GI50 (MDA-N): > 100 µM (inactive) | GI50 (KM12): > 100 µM (inactive) | GI50 (M14): > 100 µM (inactive) | GI50 (BT-549): > 100 µM (inactive) | GI50 (ACHN): > 100 µM (inactive) | GI50 (OVCAR-3): > 100 µM (inactive) | GI50 (MOLT-4): 0.1 µM (active) | GI50 (NCI-H460): > 100 µM (inactive) | GI50 (NCI-H522): 44 µM (inactive) | GI50 (SF-268): > 100 µM (inactive) | GI50 (COLO 205): > 100 µM (inactive) | GI50 (TK-10): 87.9 µM (inactive) | GI50 (UACC-257): > 100 µM (inactive) | GI50 (EKVX): 29 µM (inactive) | GI50 (HL-60): 17.4 µM (inactive) | GI50 (SF-295): 98.2 µM (inactive) | GI50 (SW-620): > 100 µM (inactive) | GI50 (SK-MEL-5): > 100 µM (inactive) | GI50 (U-251): > 100 µM (inactive) | GI50 (HOP-92): 35.6 µM (inactive) | GI50 (SNB-19): > 100 µM (inactive) | GI50 (SR): > 100 µM (inactive) | GI50 (HCC 2998): 96.2 µM (inactive) | GI50 (MDA-MB-231): 78.5 µM (inactive) | GI50 (NCI-H23): > 100 µM (inactive) | GI50 (MDA-MB-435): > 100 µM (inactive) | GI50 (DU-145): > 100 µM (inactive) | GI50 (T47D): > 100 µM (inactive) | GI50 (Hs-578T): 31.7 µM (inactive) | GI50 (UACC-62): 73.8 µM (inactive) | GI50 (HCT-116): > 100 µM (inactive) | GI50 (RXF 393): 58.1 µM (inactive) | GI50 (OVCAR-5): > 100 µM (inactive) | GI50 (OVCAR-8): > 100 µM (inactive) | GI50 (OVCAR-4): > 100 µM (inactive) | GI50 (LOX IMVI): > 100 µM (inactive) | GI50 (IGROV-1): 80.7 µM (inactive) | GI50 (HOP-62): 98.4 µM (inactive) | GI50 (UO-31): 1.39 µM (inactive) | GI50 (SK-MEL-28): > 100 µM (inactive) | GI50 (A498): 50.8 µM (inactive) | GI50 (HCT-15): > 100 µM | GI50 (A549): > 100 µM (inactive) | GI50 (RPMI-8226): > 100 µM (inactive) | GI50 (SN12C): 49.1 µM (inactive) | GI50 (NCI/ADR-RES): > 100 µM (inactive) | GI50 (NCI-H226): > 100 µM (inactive) | GI50 (PC-3): > 100 µM (inactive)
